Calls of active or inactive are those of the source. The calls are words filed in the database; no cut-off is given here.
Experiments:
[1] = Dissociation constant, pKa of the compound in DMSO solution by capillary electrophoresis; assay type: physicochemical
physchem = conditions: 1-octanol/phosphate buffer, pH 7.4
in vitro [2] = conditions: human, liver microsomes
Description: Metabolic stability in human liver microsomes assessed as compound remaining measured after 30 mins

in vitro [3] = conditions: rat, liver microsomes
Description: Metabolic stability in rat liver microsomes assessed as compound remaining measured after 30 mins

Rattus norvegicus [4] = experiment: Induction of dialysate dopamine level in male Wistar rat prefrontal cortex at 3 to 10 mg/kg, sc measured upto 120 mins after treatment by microdialysis study; assay type: functional, organism-based; conditions: dose 3-10 mg/kg
Rattus norvegicus [5] = experiment: Induction of dialysate dopamine level in male Wistar rat prefrontal cortex at 10 mg/kg, sc measured upto 120 mins after treatment by microdialysis study; assay type: functional, organism-based
Rattus norvegicus [6] = experiment: In vivo receptor occupancy at 5-HT2A receptor in sc dosed Wistar rat brain in presence of MDL-100907 non-radiolabeled tracer measured pretreated for 45 mins before MDL-100907 challenge measured after 15 mins; assay type: functional, organism-based; conditions: dose 0.1-30 mg/kg, time 60.0 min
Rattus norvegicus [7] = experiment: Antipsychotic efficacy against MK-801-induced locomotor hyperactivity rat model assessed as reduction in locomotor activity at 30 mg/kg, sc pretreated for 45 mins before MK-801 challenge measured after 15 mins; assay type: functional, organism-based; conditions: time 60.0 min
Rattus norvegicus [8] = experiment: Induction of dialysate dopamine level in male Wistar rat prefrontal cortex at 3 mg/kg, sc measured upto 120 mins after treatment by microdialysis study; assay type: functional, organism-based
Rattus norvegicus [9] = experiment: Induction of dialysate dopamine level in male Wistar rat prefrontal cortex at 30 mg/kg, sc measured upto 120 mins after treatment by microdialysis study; assay type: functional, organism-based

pKa [1]	logD (physchem)	remaining at 0.5 h (in vitro [2]) [%]	remaining at 0.5 h (in vitro [3]) [%]	SMILES	Activity (Rattus norvegicus [4])	Activity (Rattus norvegicus [5])	Activity (Rattus norvegicus [6])	Activity (Rattus norvegicus [7])	Activity (Rattus norvegicus [8])	Activity (Rattus norvegicus [9])
–	1.7	88	47	CC(C)COc1ccc(CNC(=O)N(Cc2ccn(C)n2)[C@H]2CCN(C)CC23CC3)cc1	–	–	–	–	–	–
–	2.5	68	64	CC(C)COc1ccc(CNC(=O)N(Cc2ccc(F)cn2)[C@H]2CCN(C)CC23CC3)cc1	–	–	–	–	–	–
8.7	3	48	48	CC(C)COc1ccc(CNC(=O)N(Cc2ccc(F)cc2)[C@H]2CCN(C)CC23CC3)cc1	–	–	–	–	–	–
8.4	2.8	89	90	CC(C)COc1ccc(CNC(=O)N(Cc2ccc(F)cc2)C2CCN(C)CC2)cc1 [PIMAVANSERIN]	–	inactive	Dose-Dependent Effect	Active	inactive	Active
–	1.2	102	92	CCCOc1ccc(CNC(=O)N(Cc2ccn(C)n2)C2CCN(C)CC2)cc1	–	–	–	–	–	–

More lines, now with the values behind:

SMILES	pKa [1]	logD (physchem)	remaining at 0.5 h (in vitro [2]) [%]	remaining at 0.5 h (in vitro [3]) [%]	Activity (Rattus norvegicus [4])	Activity (Rattus norvegicus [5])	Activity (Rattus norvegicus [6])	Activity (Rattus norvegicus [7])	Activity (Rattus norvegicus [8])	Activity (Rattus norvegicus [9])
CC(C)COc1ccc(CNC(=O)N(Cc2ccc(F)cc2)[C@H]2CCN(C)C[C@H]2F)cc1	7.2	4	34	27	–	–	–	–	–	–
Cc1cc2c(cc1Cl)N(C(=O)Nc1ccc(Oc3cccnc3C)nc1)CC2	–	–	–	–	Active	–	–	–	–	–
CC(C)COc1ccc(CNC(=O)N(Cc2ccc(F)cc2)[C@H]2CCN(C)C[C@@H]2F)cc1	6.2	4.9	7.9	6.1	–	–	–	–	–	–

Reference: ChEMBL document CHEMBL5550221, “Dual 5-HT2A and 5-HT2C Receptor Inverse Agonist That Affords In Vivo Antipsychotic Efficacy with Minimal hERG Inhibition for the Treatment of Dementia-Related Psychosis” (J Med Chem, 2024)
